Bridges are numbered along the chain shown (N, C = ends). Where no end group is shown, it is not given here.
Legend:
[1] = test system: Klebsiella pneumoniae ATCC 700603 (MDR resistant strain); assay: CFU count after 24 h incubation with antibiotic alone or with grZ14s-nvCyc; format: cell-based
Procedure: Klebsiella pneumoniae ATCC 700603 (MDR resistant strain: Resistant to ampicillin, aztreonam, cefoxitin, cefpodoxime, ceftazidime, chloramphenicol, piperacillin, tetracycline) (3×10^5 CFU/mL) was incubated with either ampicillin, alone or with the grZ14s-nvCyc peptide (10 nM), for 24 hours at 37° C. with shaking (250 rpm). The solutions in the tubes were diluted ten-fold with phosphate buffered saline (PBS) by serial dilutions. The diluted solutions were then seeded on a blood plate agar and incubated at 37° C. for 24 hours.
A similar assay was performed with K. pneumoniae at lower bacterial concentrations of 2×10^3 CFU/mL.
K. pneumoniae ATCC 700603 (MDR resistant strain: Resistant to ampicillin, aztreonam, cefoxitin, cefpodoxime, ceftazidime, chloramphenicol, piperacillin, tetracycline) (2×10^6 CFU/mL) was incubated with either cefoxitin, alone or with the grZ14s-nvCyc peptide (10 nM), for 24 hours at 37° C. with shaking (250 rpm). The solutions were then treated as described in the examples above.
Similarly, K. pneumoniae ATCC 700603 (MDR resistant strain: Resistant to ampicillin, aztreonam, cefoxitin, cefpodoxime, ceftazidime, chloramphenicol, piperacillin, tetracycline) (4×10^6 CFU/mL) was incubated with chloramphenicol, alone or with grZ14s-nvCyc, as described in the Examples above.
Similarly, K. pneumoniae ATCC 700603 (MDR resistant strain: Resistant to ampicillin, aztreonam, cefoxitin, cefpodoxime, ceftazidime, chloramphenicol, piperacillin, tetracycline) (1×10^3 CFU/mL) was incubated with chloramphenicol, alone or with grZ14s-nvCyc, as described in the Examples above.

[2] = test system: K. pneumoniae ATCC BAA 1705 (carbapenemase positive strain); assay: as above; format: cell-based, Klebsiella pneumoniae
Procedure: K. pneumoniae ATCC BAA® 1705 (3×10^2 CFU/mL) (carbapenemase positive strain) (carbapenem-imipenem and ertapenem, amikacin, aztreonam, levofloxacin and ciprofloxacin-resistant strain) was incubated with imipenem, alone or with the grZ14s-nvCyc peptide (10 nM), for 24 hours at 37° C. with shaking (250 rpm). The solutions were then treated as described in the examples above. […]
Similarly, K. pneumoniae ATCC BAA® 1705 (1×10^5 CFU/mL) was incubated with ciprofloxacin, alone or with grZ14s-nvCyc, as described in the Examples above. […]
K. pneumoniae ATCC BAA® 1705 (2×10^6 CFU/mL) (carbapenem-imipenem and ertapenem, amikacin, aztreonam, levofloxacin and ciprofloxacin-resistant strain) was incubated with levofloxacin, alone or with grZ14s-nvCyc, as described in the Examples above.
K. pneumoniae ATCC BAA® 1705 (1×10^5 CFU/mL) (carbapenem-imipenem and ertapenem, amikacin, aztreonam, levofloxacin and ciprofloxacin-resistant strain) was incubated with aztreonam, alone or with grZ14s-nvCyc, as described in the Examples above. […]

[3] = test system: methicillin sensitive S. aureus ATCC 25923 (MSSA); assay: as above; format: cell-based, Staphylococcus aureus
Procedure: (§1) Staphylococcus aureus ATCC 43300 (5×10^5 CFU/mL) (MRSA strain) was incubated in 1.5 mL Eppendorf tubes with either oxacillin alone or oxacillin with the grZ14s-nvCyc peptide (10 nM) (cyclized CSVHSFDYDWYNVC) for 24 hours at 37° C. with shaking (250 rpm). The solutions in the tubes were diluted ten-fold with phosphate buffered saline (PBS) by serial dilutions. The diluted solutions were then seeded on a blood agar plate and incubated at 37° C. for 24 hours. The results represent the number of Colony Forming Unit (CFU) counts on the blood agar plates.
As a comparison, a strain of methicillin sensitive S. aureus ATCC 25923 (5×10^5 CFU/mL) was treated with oxacillin, alone or with the grZ14s-nvCyc (10 nM).
(§2) A similar assay was performed with S. aureus ATCC 43300 at a concentration of 7×10^6 CFU/mL. The bacterial concentration in this assay is higher (˜7×10^6 CFU/mL).
(§3) S. aureus ATCC 33591 (MRSA strain) (5×10^7 CFU/mL) and methicillin sensitive strain (MSSA) of S. aureus ATCC 25923 (1×10^8 CFU/mL) were incubated in 1.5 mL Eppendorf tubes with either oxacillin alone or oxacillin with the grZ14s-nvCyc (10 nM) for 24 hours at 37° C. with shaking (250 rpm). The solutions in the tubes were diluted ten-fold with PBS by serial dilutions. The diluted solutions were then seeded on a blood plate agar and incubated at 37° C. for 24 hours.

[4] = test system: S. aureus ATCC 33591 (MRSA strain); assay: as above; format: cell-based, Staphylococcus aureus; conditions: 10 nM grZ14s-nvCyc
Procedure: as §3
S. aureus ATCC 33591 (5×10^5 CFU/mL) (MRSA strain) was incubated in 1.5 mL Eppendorf tubes with oxacillin, alone or with the grZ14s-nvCyc peptide (10 nM), for 24 hours at 37° C. with shaking (250 rpm). […] The solutions in the tubes were diluted ten-fold with phosphate buffered saline (PBS) by serial dilutions. The diluted solutions were then seeded on a blood plate agar and incubated at 37° C. for 24 hours.

[5] = test system: Enterococcus faecium ATCC 700221 (vancomycin, teicoplanin and tetracyclin resistant strain); assay: as above; format: cell-based; conditions: for bacteria killing concentration of tetracyclin lower with grZ14s-nvCyc than with tetracyclin alone: grZ14s-nvCyc (10 mN)
Procedure: Enterococcus faecium ATCC 700221 (4×10^2 CFU/mL) (vancomycin, teicoplanin and tetracyclin resistant strain) was incubated in 1.5 mL Eppendorf tubes with either vancomycin, alone or with the grZ14s-nvCyc peptide (10 nM), for 24 hours at 37° C. with shaking (250 rpm). The solutions in the tubes were diluted ten-fold with phosphate buffered saline (PBS) by serial dilutions. The diluted solutions were then seeded on a blood plate agar and incubated at 37° C. for 24 hours.
E. faecium ATCC 700221 (2×10^2 CFU/mL) (vancomycin, teicoplanin and tetracyclin resistant strain) was incubated with either teicoplanin, alone or with the grZ14s-nvCyc peptide (10 nM), for 24 hours at 37° C. with shaking (250 rpm). The solutions were treated as described above.
E. faecium ATCC 700221 (1×10^3 CFU/mL) (vancomycin, teicoplanin and tetracyclin resistant strain) was incubated with tetracyclin, alone or with grZ14s-nvCyc ([…]), as described in the Examples above. […] Similarly, E. faecium ATCC 700221 (2×10^5 CFU/mL) (vancomycin, teicoplanin and tetracyclin resistant strain) was incubated with tetracyclin, alone or with grZ14s-nvCyc ([…]), as described in the Examples above.

[6] = test system: S. aureus ATCC BAA 1708 (MRSA strain, mupA positive); assay: CFU count after incubation with mupirocin alone or with grZ14s-nvCyc; format: cell-based, Staphylococcus aureus; conditions: 1×10^5 CFU/mL; 10 nM grZ14s-nvCyc; FIG. 12
Procedure: as §1
S. aureus ATCC BAA® 1708 (MRSA strain, mupA positive) (1×10^5 CFU/mL) was incubated with mupirocin, alone or with grZ14s-nvCyc as described in the Examples above.

[7] = test system: Staphylococcus aureus ATCC 43300 (MRSA strain); assay: CFU count after 24 h incubation with antibiotic alone or with grZ14s-nvCyc; format: cell-based; conditions: for bacteria killing concentration of oxacillin with grZ14s-nvCyc versus oxacillin alone: 10 nM grZ14s-nvCyc
Procedure: as §1, §2

## CC1(C)S[C@@H]2[C@H](NC(=O)[C@H](N)c3ccccc3)C(=O)N2[C@H]1C(=O)O [ampicillin, reference compound]
[1]; 2×10^3 CFU/mL, FIG. 8
  bacteria killing by ampicillin alone: achieves bacteria killing with the antibiotic alone
[1]; 3×10^5 CFU/mL, even very high concentrations of ampicillin, FIG. 7
  bacterial killing by ampicillin alone: could not achieve bacterial killing

## C[C@H]1[C@H](NC(=O)/C(=N\OC(C)(C)C(=O)O)c2csc(N)n2)C(=O)N1S(=O)(=O)O [aztreonam, reference compound]
[2]; 1×10^3 CFU/mL, FIG. 19b
  bacteria killing by aztreonam alone: able achieve bacteria killing activity
[2]; 1×10^5 CFU/mL, at 1000 μg/ml aztreonam, FIG. 19
  bacteria killing by aztreonam alone: does not achieve bacteria killing

## O=C(N[C@H](CO)[C@H](O)c1ccc([N+](=O)[O-])cc1)C(Cl)Cl [chloramphenicol, reference compound]
[1]; 1×10^3 CFU/mL, FIG. 16
  bacteria killing by chloramphenicol alone: can achieve bacteria killing activity
[1]; 4×10^6 CFU/mL, at the concentration where the combination kills, FIG. 15
  bacteria killing by chloramphenicol alone: does not achieve bacteria killing

## Cc1onc(-c2ccccc2)c1C(=O)N[C@@H]1C(=O)N2[C@@H]1SC(C)(C)[C@@H]2C(=O)O [oxacillin, reference compound]
[3]; ~7×10^6 CFU/mL, oxacillin alone, FIG. 2
  oxacillin concentration needed to kill the bacteria: 12.5 µg/mL

## cyclized CSVHSFDYDWYNVC (disulfide 1-14 (inferred); not fully specified) [grZ14s-nvCyc]
[4]; 5×10^5 CFU/mL, FIG. 4a
  bacteria killing concentration of oxacillin with grZ14s-nvCyc versus oxacillin alone: much lower
[4]; 5×10^7 CFU/mL, FIG. 3
  bacteria killing concentration of oxacillin in the presence of the peptide versus oxacillin alone: reduced to about half
[5]; 1×10^3 CFU/mL, FIG. 13a
  bacteria killing concentration of tetracyclin lower with grZ14s-nvCyc than with tetracyclin alone: 60%
[5]; 2×10^2 CFU/mL, 10 nM grZ14s-nvCyc, FIG. 6
  bacteria killing concentration of teicoplanin lower with grZ14s-nvCyc than with teicoplanin alone: about 60%
[5]; 2×10^5 CFU/mL, FIG. 13b
  bacteria killing concentration of tetracyclin lower with grZ14s-nvCyc than with tetracyclin alone: ~70%
[5]; 4×10^2 CFU/mL, 10 nM grZ14s-nvCyc, FIG. 5
  bacteria killing concentration of vancomycin lower with grZ14s-nvCyc than with vancomycin alone: about 50%
[2]; 1×10^5 CFU/mL, 10 nM grZ14s-nvCyc, FIG. 14
  bacteria killing concentration of ciprofloxacin lower with grZ14s-nvCyc than with ciprofloxacin alone: 80%
[2]; 1×10^5 CFU/mL, 10 nM grZ14s-nvCyc, FIG. 19
  aztreonam concentration at which aztreonam with grZ14s-nvCyc achieves bacteria killing: 1000 µg/mL
[2]; 1×10^6 CFU/mL, incubated with amikacin, alone or with grZ14s-nvCyc, FIG. 17
  bacteria killing concentration of amikacin with grZ14s-nvCyc lower than with amikacin alone: 75%
[2]; 2×10^6 CFU/mL, 10 nM grZ14s-nvCyc, FIG. 18
  bacteria killing concentration of levofloxacin with grZ14s-nvCyc lower than with levofloxacin alone: 30%
[2]; 3×10^2 CFU/mL, 10 nM grZ14s-nvCyc, FIG. 10
  bacteria killing concentration of imipenem lower with grZ14s-nvCyc than in imipenem alone: > 75%
[1]; 1×10^3 CFU/mL, 10 nM grZ14s-nvCyc, FIG. 16
  bacteria killing concentration of chloramphenicol with grZ14s-nvCyc lower than with chloramphenicol alone: 20%
[1]; 2×10^3 CFU/mL, 10 nM grZ14s-nvCyc, FIG. 8
  bacteria killing concentration of ampicillin lower with grZ14s-nvCyc than with ampicillin alone: 100 µg/mL
[1]; 2×10^6 CFU/mL, 10 nM grZ14s-nvCyc, FIG. 9
  bacteria killing concentration of cefoxitin lower with grZ14s-nvCyc than in cefoxitin alone: > 80%
[1]; 3×10^5 CFU/mL, 10 nM grZ14s-nvCyc, FIG. 7
  bacteria killing activity of ampicillin with grZ14s-nvCyc at lower concentrations: ~100%
[1]; 4×10^6 CFU/mL, 10 nM grZ14s-nvCyc, FIG. 15
  bacteria killing by chloramphenicol with grZ14s-nvCyc: achieves bacteria killing at a concentration where chloramphenicol alone does not achieve bacteria killing
[3]; 1×10^6 CFU/mL, 10 nM grZ14s-nvCyc, FIG. 4b
  difference between the activity of oxacillin with or without grZ14s-nvCyc: no significant difference
[3]; 1×10^8 CFU/mL, 10 nM grZ14s-nvCyc, FIG. 3
  bacteria killing concentration of oxacillin in the presence of the peptide versus oxacillin alone: reduced to about half
[3]; 5×10^5 CFU/mL, 10 nM grZ14s-nvCyc, FIG. 1b
  difference between the activity of oxacillin with or without grZ14s-nvCyc: no significant difference
[6]
  bacterial load in the presence of a combination of mupirocin and grZ14s-nvCyc: reduced by at least one order of magnitude
[7]; 5×10^5 CFU/mL, 24 h, 37° C., FIG. 1a
  bacteria killing concentration of oxacillin with grZ14s-nvCyc versus oxacillin alone: much lower
[7]; 7×10^6 CFU/mL, FIG. 2
  bacteria killing concentration of oxacillin with grZ14s-nvCyc versus oxacillin alone: much lower
[7]; ~7×10^6 CFU/mL, oxacillin with 10 nM grZ14s-nvCyc, FIG. 2
  oxacillin concentration needed to kill the bacteria, with grZ14s-nvCyc: 6.25 µg/mL
